In ChEMBL document CHEMBL4138123, “Design, synthesis and biological evaluation of novel pyrazolochalcones as potential modulators of PI3K/Akt/mTOR pathway and inducers of apoptosis in breast cancer cells” (Eur J Med Chem, 2017):

Legend:
Assay type in all cases: functional
MOLT-4 [1] = test: Cytotoxicity against human MOLT4 cells assessed as growth inhibition after 48 hrs by sulforhodamine B assay; conditions: MOLT-4, 48 h; for CC50: read-out: LC50 (the source's name)
HOP-62 = test: Cytotoxicity against human HOP62 cells assessed as growth inhibition after 48 hrs by sulforhodamine B assay; conditions: HOP-62, 48 h
SF-268 [2] = test: Cytotoxicity against human SF268 cells assessed as growth inhibition after 48 hrs by sulforhodamine B assay; conditions: SF-268, 48 h; for CC50: read-out: LC50 (the source's name)
LOX IMVI = test: Cytotoxicity against human LOXIMVI cells assessed as growth inhibition after 48 hrs by sulforhodamine B assay
MDA-MB-435 [3] = test: Cytotoxicity against human MDA-MB-435 cells assessed as growth inhibition after 48 hrs by sulforhodamine B assay; conditions: MDA-MB-435, 48 h
SK-MEL-28 [4] = test: Cytotoxicity against human SK-MEL-28 cells assessed as growth inhibition after 48 hrs by sulforhodamine B assay; conditions: SK-MEL-28, 48 h
786-0 [5] = test: Cytotoxicity against human 786-0 cells assessed as growth inhibition after 48 hrs by sulforhodamine B assay; conditions: 786-0, 48 h
A498 [6] = test: Cytotoxicity against human A498 cells assessed as growth inhibition after 48 hrs by sulforhodamine B assay; conditions: A498, 48 h
DU-145 = test: Cytotoxicity against human DU145 cells assessed as growth inhibition after 48 hrs by sulforhodamine B assay; conditions: DU-145, 48 h
T47D [7] = test: Cytotoxicity against human T47D cells assessed as growth inhibition after 48 hrs by sulforhodamine B assay
A498 [8] = test: Cytotoxicity against human A498 cells assessed as cell growth at 0.01 uM after 48 hrs by sulforhodamine B assay relative to control; conditions: A498, 48 h, read-out: Activity
OVCAR-4 = test: Cytotoxicity against human OVCAR4 cells assessed as cell growth at 0.01 uM after 48 hrs by sulforhodamine B assay relative to control; conditions: OVCAR-4, 48 h, read-out: Activity
M14 = test: Cytotoxicity against human M14 cells assessed as cell growth at 0.01 uM after 48 hrs by sulforhodamine B assay relative to control; conditions: M14, 48 h, read-out: Activity
NCI-H322M = test: Cytotoxicity against human NCI-H322M cells assessed as cell growth at 0.01 uM after 48 hrs by sulforhodamine B assay relative to control; conditions: read-out: Activity
MOLT-4 [9] = test: Cytotoxicity against human MOLT4 cells assessed as cell growth at 0.01 uM after 48 hrs by sulforhodamine B assay relative to control; conditions: MOLT-4, 48 h, read-out: Activity
MOLT-4 [10] = test: Cytotoxicity against human MOLT4 cells assessed as cell growth at 0.1 uM after 48 hrs by sulforhodamine B assay relative to control; conditions: MOLT-4, 48 h, read-out: Activity
UACC-257 = test: Cytotoxicity against human UACC257 cells assessed as cell growth at 0.1 uM after 48 hrs by sulforhodamine B assay relative to control; conditions: UACC-257, 48 h, read-out: Activity
OVCAR-5 [11] = test: Cytotoxicity against human OVCAR5 cells assessed as cell growth at 0.1 uM after 48 hrs by sulforhodamine B assay relative to control; conditions: OVCAR-5, 48 h, read-out: Activity
786-0 [12] = test: Cytotoxicity against human 786-0 cells assessed as cell growth at 0.1 uM after 48 hrs by sulforhodamine B assay relative to control; conditions: 786-0, 48 h, read-out: Activity
RXF 393 = test: Cytotoxicity against human RXF393 cells assessed as cell growth at 0.1 uM after 48 hrs by sulforhodamine B assay relative to control; conditions: RXF 393, 48 h, read-out: Activity
BT-549 = test: Cytotoxicity against human BT549 cells assessed as cell growth at 0.1 uM after 48 hrs by sulforhodamine B assay relative to control; conditions: BT-549, 48 h, read-out: Activity
T47D [13] = test: Cytotoxicity against human T47D cells assessed as cell growth at 0.1 uM after 48 hrs by sulforhodamine B assay relative to control; conditions: read-out: Activity
MDA-MB-468 = test: Cytotoxicity against human MDA-MB-468 cells assessed as cell growth at 0.1 uM after 48 hrs by sulforhodamine B assay relative to control; conditions: MDA-MB-468, 48 h, read-out: Activity
SF-268 [14] = test: Cytotoxicity against human SF268 cells assessed as cell growth at 1 uM after 48 hrs by sulforhodamine B assay relative to control; conditions: SF-268, 48 h, read-out: Activity
Malme-3M = test: Cytotoxicity against human MALME-3M cells assessed as cell growth at 1 uM after 48 hrs by sulforhodamine B assay relative to control; conditions: read-out: Activity
MDA-MB-435 [15] = test: Cytotoxicity against human MDA-MB-435 cells assessed as cell growth at 1 uM after 48 hrs by sulforhodamine B assay relative to control; conditions: MDA-MB-435, 48 h, read-out: Activity
OVCAR-5 [16] = test: Cytotoxicity against human OVCAR5 cells assessed as cell growth at 1 uM after 48 hrs by sulforhodamine B assay relative to control; conditions: OVCAR-5, 48 h, read-out: Activity
OVCAR-8 = test: Cytotoxicity against human OVCAR8 cells assessed as cell growth at 1 uM after 48 hrs by sulforhodamine B assay relative to control; conditions: OVCAR-8, 48 h, read-out: Activity
K562 = test: Cytotoxicity against human K562 cells assessed as cell growth at 10 uM after 48 hrs by sulforhodamine B assay relative to control; conditions: K562, 48 h, read-out: Activity
HCC 2998 = test: Cytotoxicity against human HCC2998 cells assessed as cell growth at 10 uM after 48 hrs by sulforhodamine B assay relative to control; conditions: HCC 2998, 48 h, read-out: Activity
SF-268 [17] = test: Cytotoxicity against human SF268 cells assessed as cell growth at 10 uM after 48 hrs by sulforhodamine B assay relative to control; conditions: SF-268, 48 h, read-out: Activity
PC-3 = test: Cytotoxicity against human PC3 cells assessed as cell growth at 10 uM after 48 hrs by sulforhodamine B assay relative to control; conditions: PC-3, 48 h, read-out: Activity
KM12 = test: Cytotoxicity against human KM12 cells assessed as cell growth at 100 uM after 48 hrs by sulforhodamine B assay relative to control; conditions: KM12, 48 h, read-out: Activity
SNB-19 = test: Cytotoxicity against human SNB19 cells assessed as cell growth at 100 uM after 48 hrs by sulforhodamine B assay relative to control; conditions: SNB-19, 48 h, read-out: Activity
SK-MEL-28 [18] = test: Cytotoxicity against human SK-MEL-28 cells assessed as cell growth at 100 uM after 48 hrs by sulforhodamine B assay relative to control; conditions: SK-MEL-28, 48 h, read-out: Activity

Compound: COc1ccc(-c2cc(/C=C/C(=O)c3cc(OC)c(OC)c(OC)c3)[nH]n2)cc1OC
- GI50 (MOLT-4 [1]): 1.81 µM
- TGI (MOLT-4 [1]): 8.86 µM
- CC50 (MOLT-4 [1]): > 100 µM
- GI50 (HOP-62): 1.45 µM
- LC50 (HOP-62): 8.85 µM
- TGI (HOP-62): 3.58 µM
- GI50 (SF-268 [2]): 1.68 µM
- TGI (SF-268 [2]): 3.9 µM
- CC50 (SF-268 [2]): 9.03 µM
- GI50 (LOX IMVI): 1.46 µM
- LC50 (LOX IMVI): 5.7 µM
- TGI (LOX IMVI): 2.88 µM
- GI50 (MDA-MB-435 [3]): 1.78 µM
- LC50 (MDA-MB-435 [3]): 9.2 µM
- TGI (MDA-MB-435 [3]): 4.05 µM
- GI50 (SK-MEL-28 [4]): 1.91 µM
- LC50 (SK-MEL-28 [4]): 10.6 µM
- TGI (SK-MEL-28 [4]): 4.41 µM
- GI50 (786-0 [5]): 1.5 µM
- LC50 (786-0 [5]): 5.6 µM
- TGI (786-0 [5]): 2.9 µM
- GI50 (A498 [6]): 1.46 µM
- LC50 (A498 [6]): 22.3 µM
- TGI (A498 [6]): 4.99 µM
- GI50 (DU-145): 1.83 µM
- TGI (DU-145): 4.12 µM
- CC50 (DU-145; read-out: LC50 (the source's name)): 9.28 µM
- GI50 (T47D [7]): 1.01 µM
- LC50 (T47D [7]): > 100 µM
- TGI (T47D [7]): 3.76 µM
- growth at 0.01 µM (A498 [8]): 99%
- growth at 0.01 µM (OVCAR-4): 94%
- growth at 0.01 µM (M14): 96%
- growth at 0.01 µM (NCI-H322M): 93%
- growth at 0.01 µM (MOLT-4 [9]): 99%
- growth at 0.1 µM (MOLT-4 [10]): 95%
- growth at 0.1 µM (UACC-257): 97%
- growth at 0.1 µM (OVCAR-5 [11]): 92%
- growth at 0.1 µM (786-0 [12]): 91%
- growth at 0.1 µM (RXF 393): 102%
- growth at 0.1 µM (BT-549): 82%
- growth at 0.1 µM (T47D [13]): 83%
- growth at 0.1 µM (MDA-MB-468): 91%
- growth at 1 µM (SF-268 [14]): 81%
- growth at 1 µM (Malme-3M): 93%
- growth at 1 µM (MDA-MB-435 [15]): 85%
- growth at 1 µM (OVCAR-5 [16]): 81%
- growth at 1 µM (OVCAR-8): 80%
- growth at 10 µM (K562): -1%
- growth at 10 µM (HCC 2998): -93%
- growth at 10 µM (SF-268 [17]): -56%
- growth at 10 µM (PC-3): 1%
- growth at 100 µM (KM12): -64%
- growth at 100 µM (SNB-19): -77%
- growth at 100 µM (SK-MEL-28 [18]): -82%

Compound: COc1ccc(C(=O)/C=C/c2cc(-c3cc(OC)c(OC)c(OC)c3)n[nH]2)cc1
- TGI (MOLT-4 [1]): 6.82 µM
- CC50 (MOLT-4 [1]): > 100 µM
- LC50 (HOP-62): 8.07 µM
- TGI (HOP-62): 3.77 µM
- TGI (SF-268 [2]): 5.12 µM
- CC50 (SF-268 [2]): > 100 µM
- TGI (LOX IMVI): 3.02 µM
- LC50 (MDA-MB-435 [3]): > 100 µM
- TGI (MDA-MB-435 [3]): 5.69 µM
- LC50 (SK-MEL-28 [4]): 9.23 µM
- TGI (SK-MEL-28 [4]): 4.42 µM
- TGI (786-0 [5]): 4.13 µM
- TGI (A498 [6]): 3.94 µM
- TGI (DU-145): 2.83 µM
- LC50 (T47D [7]): > 100 µM
- TGI (T47D [7]): 13 µM
- growth at 0.01 µM (A498 [8]): 98%
- growth at 0.01 µM (OVCAR-4): 91%
- growth at 0.01 µM (M14): 100%
- growth at 0.01 µM (NCI-H322M): 92%
- growth at 0.01 µM (MOLT-4 [9]): 103%
- growth at 0.1 µM (MOLT-4 [10]): 103%
- growth at 0.1 µM (UACC-257): 97%
- growth at 0.1 µM (OVCAR-5 [11]): 97%
- growth at 0.1 µM (786-0 [12]): 96%
- growth at 0.1 µM (RXF 393): 90%
- growth at 0.1 µM (BT-549): 97%
- growth at 0.1 µM (T47D [13]): 93%
- growth at 0.1 µM (MDA-MB-468): 88%
- growth at 1 µM (SF-268 [14]): 87%
- growth at 1 µM (Malme-3M): 93%
- growth at 1 µM (MDA-MB-435 [15]): 92%
- growth at 1 µM (OVCAR-5 [16]): 95%
- growth at 1 µM (OVCAR-8): 86%
- growth at 10 µM (K562): -17%
- growth at 10 µM (HCC 2998): -83%
- growth at 10 µM (SF-268 [17]): -35%
- growth at 10 µM (PC-3): -68%
- growth at 100 µM (KM12): -74%
- growth at 100 µM (SNB-19): -6%
- growth at 100 µM (SK-MEL-28 [18]): -87%
